Results: article PMC3743170 (Molecular Informatics, 2013)

Columns and labels:
PI3Kα = PI3Kα (Homo sapiens, UniProt P42336); experiment: PI3Kα activity determination; type: biochemical; settings: 10-dose IC50 determination (n=3), 10 µM ATP
[1] = Dynamic light scattering aggregation; type: physicochemical; settings: aqueous solution with 1 % DMSO
human M1 receptor = biological target: T1, human M1 receptor (Homo sapiens, UniProt P11229); experiment: Cell-based functional M1 agonist assay
T1 sequence (P11229 1-460): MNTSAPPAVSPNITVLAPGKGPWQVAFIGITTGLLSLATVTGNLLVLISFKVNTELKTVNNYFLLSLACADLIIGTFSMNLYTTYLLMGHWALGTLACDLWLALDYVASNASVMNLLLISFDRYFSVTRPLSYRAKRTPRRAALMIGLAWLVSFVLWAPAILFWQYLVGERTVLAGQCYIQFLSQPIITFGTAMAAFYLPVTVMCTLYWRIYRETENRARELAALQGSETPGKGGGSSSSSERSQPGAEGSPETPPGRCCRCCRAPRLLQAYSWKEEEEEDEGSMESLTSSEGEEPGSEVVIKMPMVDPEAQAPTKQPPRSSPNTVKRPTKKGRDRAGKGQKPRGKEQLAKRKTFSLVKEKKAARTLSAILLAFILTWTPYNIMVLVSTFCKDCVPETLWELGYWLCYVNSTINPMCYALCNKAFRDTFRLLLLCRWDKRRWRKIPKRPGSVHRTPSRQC

PI3Kα, sequence (P42336 whole entry): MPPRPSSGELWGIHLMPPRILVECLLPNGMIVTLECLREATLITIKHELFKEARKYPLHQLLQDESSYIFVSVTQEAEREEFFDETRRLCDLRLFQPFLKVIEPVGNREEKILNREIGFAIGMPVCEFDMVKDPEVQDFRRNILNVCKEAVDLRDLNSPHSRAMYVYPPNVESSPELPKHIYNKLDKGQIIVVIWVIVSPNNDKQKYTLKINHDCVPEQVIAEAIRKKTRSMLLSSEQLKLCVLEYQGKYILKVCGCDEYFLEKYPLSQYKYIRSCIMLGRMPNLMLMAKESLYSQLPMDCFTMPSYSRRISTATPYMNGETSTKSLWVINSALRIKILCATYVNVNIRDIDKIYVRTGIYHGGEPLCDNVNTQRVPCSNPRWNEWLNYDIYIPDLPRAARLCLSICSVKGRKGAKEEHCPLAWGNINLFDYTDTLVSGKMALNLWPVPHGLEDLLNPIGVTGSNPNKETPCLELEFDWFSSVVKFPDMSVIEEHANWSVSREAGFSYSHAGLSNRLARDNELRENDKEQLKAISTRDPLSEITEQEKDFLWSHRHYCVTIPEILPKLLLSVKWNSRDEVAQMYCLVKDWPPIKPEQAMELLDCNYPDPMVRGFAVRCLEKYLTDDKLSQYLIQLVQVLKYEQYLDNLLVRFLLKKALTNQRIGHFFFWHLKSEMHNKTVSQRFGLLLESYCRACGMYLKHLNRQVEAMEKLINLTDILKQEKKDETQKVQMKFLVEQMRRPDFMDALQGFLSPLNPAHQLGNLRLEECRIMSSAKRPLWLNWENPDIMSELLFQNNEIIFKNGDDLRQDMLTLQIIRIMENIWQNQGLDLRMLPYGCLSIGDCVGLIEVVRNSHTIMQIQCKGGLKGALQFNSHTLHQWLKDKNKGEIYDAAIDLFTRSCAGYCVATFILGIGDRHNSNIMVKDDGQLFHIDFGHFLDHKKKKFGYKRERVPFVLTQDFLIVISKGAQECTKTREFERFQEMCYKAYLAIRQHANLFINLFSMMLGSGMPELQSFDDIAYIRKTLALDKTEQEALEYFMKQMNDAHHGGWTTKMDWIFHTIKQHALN
PI3Kα, sequence (P27986 whole entry partner): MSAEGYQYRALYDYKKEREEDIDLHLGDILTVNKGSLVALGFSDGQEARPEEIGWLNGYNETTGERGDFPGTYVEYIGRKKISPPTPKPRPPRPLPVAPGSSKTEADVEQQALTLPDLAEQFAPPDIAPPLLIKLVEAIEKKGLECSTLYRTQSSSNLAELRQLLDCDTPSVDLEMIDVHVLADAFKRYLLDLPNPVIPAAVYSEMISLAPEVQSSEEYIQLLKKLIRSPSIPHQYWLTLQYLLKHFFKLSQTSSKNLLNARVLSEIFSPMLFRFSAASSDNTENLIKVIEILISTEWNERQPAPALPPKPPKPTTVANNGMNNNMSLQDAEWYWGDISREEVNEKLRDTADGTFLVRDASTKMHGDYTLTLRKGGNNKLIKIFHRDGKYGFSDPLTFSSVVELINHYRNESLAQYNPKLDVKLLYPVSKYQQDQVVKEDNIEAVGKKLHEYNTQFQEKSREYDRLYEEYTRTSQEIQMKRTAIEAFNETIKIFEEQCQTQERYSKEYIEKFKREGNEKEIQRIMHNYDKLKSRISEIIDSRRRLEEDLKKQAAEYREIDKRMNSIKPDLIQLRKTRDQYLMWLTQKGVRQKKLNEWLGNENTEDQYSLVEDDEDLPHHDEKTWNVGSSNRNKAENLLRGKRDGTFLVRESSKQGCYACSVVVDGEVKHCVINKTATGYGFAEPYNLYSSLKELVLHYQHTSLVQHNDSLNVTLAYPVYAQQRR

| IC50 (PI3Kα) [µM] | concentrations at which aggregate particles were observable [1] [µM] | EC50 (human M1 receptor) [µM] | M1 agonistic activity, % of the effect caused by 100 nM acetylcholine (human M1 receptor; compound concentration of 10 µM) [%] | Structure (SMILES) |
| --- | --- | --- | --- | --- |
| 131 |  |  |  | COC(=O)CNc1c(-c2ccc(OC)cc2OC)nc2ccccn12 [Compound 1, methyl 2-((2-(2,4-dimethoxyphenyl)imidazo[1,2-a]pyridin-3-yl)amino)acetate] |
| 230 ± 30 | 15.5 to 250 | ~5 | 34±5 | COC(=O)c1ccn2c(NCCN3CCOCC3)c(-c3cccn3C)nc2c1 [Compound 2, methyl 2-(1-methyl-1H-pyrrol-2-yl)-3-((2-morpholinoethyl)amino)imidazo[1,2-a] pyridine-7-carboxylate] |
